The values that follow come from PubChem BioAssay (NCI).

SMILES strings stand for the structures. Values joined by “and” are separate entries in the source; they are usually repeats but may differ in a detail not shown here. Identical values can stand only once.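 Grown in 96-well plates, cells were treated for 48 hours with each compound at five concentrations. Insufficient inhibition: endpoint recorded as highest concentration tested. Abbreviation: GI50, concentration required for 50% inhibition of growth. TGI denotes the concentration required for complete inhibition of growth.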

By GI50 is commonly meant the concentration giving 50% growth inhibition. For orientation: TGI means the concentration giving total growth inhibition. A low value points to more potent growth arrest.

Among the test systems are DU-145 prostate; KM12 colon; MDA-MB-435; NCI-H522 lung; OVCAR-5 ovarian; SK-OV-3 ovarian; UO-31 renal.
Common to all, as to experiment: DTP human tumour cell line panel, 48 h

Take `C=C1C(=O)O[C@H]2[C@H]1CC/C(COC(=O)NCCCCCCCCNC(=O)OC/C1=C/CC[C@@]3(C)O[C@H]3[C@H]3OC(=O)C(=C)[C@@H]3CC1)=C\CC[C@@]1(C)O[C@@H]21`: the GI50 with DU-145 prostate is 1.1 µM; in the assay on KM12 colon, 1.29 µM; in the assay with MDA-MB-435, 0.241 µM; with NCI-H522 lung, 0.186 µM; in the assay with OVCAR-5 ovarian it was 0.269 µM; in the assay with SK-OV-3 ovarian, 3.64 µM. For the same molecule, the GI50 in the assay on UO-31 renal was 0.88 µM. The total growth inhibition concentration (TGI) was 2.3 µM in the assay with DU-145 prostate; 3.11 µM in the assay with KM12 colon; 0.686 µM in the assay on MDA-MB-435; 0.407 µM with NCI-H522 lung; 0.912 µM with OVCAR-5 ovarian; 12.3 µM with SK-OV-3 ovarian. This molecule returned a total growth inhibition concentration (TGI) in the assay with UO-31 renal of 2.17 µM.

`Cc1cc(=O)oc2cc(OC/C=C3\CCC(=O)O3)ccc12`: the GI50 was 5.31 µM in the assay with DU-145 prostate; 18 µM with KM12 colon; 7.23 µM in the assay with MDA-MB-435; 7.82 µM in the assay on NCI-H522 lung; 17.1 µM in the assay with OVCAR-5 ovarian; 28.2 µM with SK-OV-3 ovarian. Further, the GI50 with UO-31 renal was 12.8 µM. In addition, the TGI is 22.9 µM with DU-145 prostate; 47.9 µM in the assay on KM12 colon; 40.9 µM in the assay on MDA-MB-435; 23 µM in the assay on NCI-H522 lung; 36.4 µM in the assay on OVCAR-5 ovarian; over 76 µM in the assay with SK-OV-3 ovarian. In the assay with UO-31 renal, this molecule showed a TGI of 26.3 µM.

With `COc1ccc2c(c1)C(=O)c1c-2c(Nc2cccc(C(C)=O)c2)nc2ccccc12`, the GI50 in the assay on DU-145 prostate is 11.7 µM; in the assay with KM12 colon, 27 µM; in the assay on MDA-MB-435, 30.8 µM; with NCI-H522 lung, 8.53 µM; in the assay with OVCAR-5 ovarian, 11.4 µM; in the assay on UO-31 renal, 15.4 µM. In addition, the TGI is 32.2 µM with DU-145 prostate; over 100 µM with KM12 colon; over 100 µM in the assay on MDA-MB-435; 35.1 µM in the assay with NCI-H522 lung; 24.5 µM in the assay with OVCAR-5 ovarian; 45.2 µM in the assay with UO-31 renal.

For `Cc1ccc(S(=O)(=O)Nc2ccc(-c3cc(-c4cccc(F)c4)c(C#N)c(N)n3)cc2)cc1`, the GI50 with DU-145 prostate is 2.33 µM; in the assay on KM12 colon, 3.1 µM; with MDA-MB-435, 2.02 µM; with NCI-H522 lung, 1.69 µM; in the assay with OVCAR-5 ovarian it was 1.73 µM; in the assay on SK-OV-3 ovarian it was 8.92 µM. The GI50 in the assay with UO-31 renal was 1.32 µM. The TGI with DU-145 prostate was 5.45 µM; with KM12 colon it was 10.2 µM; in the assay with MDA-MB-435, 4.46 µM; with NCI-H522 lung, 4.91 µM; in the assay on OVCAR-5 ovarian, 3.46 µM; with SK-OV-3 ovarian it was 23.3 µM. Moreover, the TGI in the assay on UO-31 renal was 2.59 µM.

In the case of `COc1ccc(OC)c(/C=C/c2nc(SCc3ccccc3)n(-c3ccc(Cl)cc3)n2)c1`, the GI50 is 9.9 µM in the assay with DU-145 prostate; 4.99 µM in the assay with KM12 colon; 3.39 µM in the assay on NCI-H522 lung; over 100 µM in the assay on OVCAR-5 ovarian; 8.21 µM with SK-OV-3 ovarian. Further, the concentration for total growth inhibition (TGI) in the assay on DU-145 prostate is over 100 µM; in the assay with KM12 colon it was over 100 µM; in the assay with NCI-H522 lung, 25 µM; with OVCAR-5 ovarian, over 100 µM; in the assay on SK-OV-3 ovarian, over 100 µM.

As to `COCCn1cc(-c2csc(-c3c[nH]c4ccc(Br)cc34)n2)c2cccnc21`, the GI50 in the assay with KM12 colon is 2.74 µM; with MDA-MB-435, 4.12 µM; in the assay on NCI-H522 lung, 2.17 µM; with OVCAR-5 ovarian, 4.83 µM; with SK-OV-3 ovarian it was 13.9 µM; with UO-31 renal, 3.1 µM. Besides, the TGI was over 100 µM in the assay with KM12 colon; over 100 µM in the assay with MDA-MB-435; 6.93 µM with NCI-H522 lung; over 100 µM in the assay on OVCAR-5 ovarian; over 100 µM in the assay with SK-OV-3 ovarian; over 100 µM in the assay with UO-31 renal.

Turning to `COc1cccc2c1C(=O)c1c(O)c3c(c(O)c1C2=O)CC(O)(C(=O)CO)CC3OC1CC(N)C(O)C(C)O1` (stereo not drawn), the GI50 in the assay on DU-145 prostate was 15.9 µg/mL and 71 µg/mL; in the assay on KM12 colon, 16.9 µg/mL and 54.4 µg/mL; in the assay on MDA-MB-435 it was 8.56 µg/mL and 67 µg/mL; with NCI-H522 lung, 4.07 µg/mL; with OVCAR-5 ovarian, 75 µg/mL and > 150 µg/mL; with SK-OV-3 ovarian, 22.6 µg/mL and 14.9 µg/mL. Besides, the GI50 in the assay with UO-31 renal is 59 µg/mL and > 150 µg/mL. Moreover, the TGI is 75 µg/mL and > 150 µg/mL in the assay with DU-145 prostate; 75 µg/mL and > 150 µg/mL in the assay on KM12 colon; 75 µg/mL and > 150 µg/mL in the assay on MDA-MB-435; 75 µg/mL in the assay on NCI-H522 lung; 75 µg/mL and > 150 µg/mL in the assay with OVCAR-5 ovarian; 75 µg/mL and 143 µg/mL in the assay on SK-OV-3 ovarian. Moreover, the total growth inhibition concentration (TGI) with UO-31 renal is 75 µg/mL and > 150 µg/mL.

In the case of `O=C(O)CCC(C(=O)O)N1C(=O)C2C3CCC(C3)C2C1=O` (stereo not drawn), the total growth inhibition concentration (TGI) in the assay with DU-145 prostate, in the assay with KM12 colon, in the assay with MDA-MB-435, with NCI-H522 lung, with OVCAR-5 ovarian and with SK-OV-3 ovarian was over 100 µM in each case.

As for `CN1CCN(Cc2ccc(NC(=O)c3cncc(C#Cc4cnc(N)c5cnccc45)c3)cc2C(F)(F)F)CC1`, the concentration for 50% growth inhibition (GI50) with DU-145 prostate is 0.214 µM; in the assay with KM12 colon, 0.0169 µM; in the assay with MDA-MB-435, 0.115 µM; in the assay on NCI-H522 lung, 0.226 µM; in the assay on OVCAR-5 ovarian, 0.162 µM; in the assay on SK-OV-3 ovarian, 0.181 µM. Further, in the assay on UO-31 renal, the GI50 is 0.42 µM. For the same molecule, the TGI was 6.21 µM in the assay on DU-145 prostate; 5.53 µM in the assay with KM12 colon; 1.65 µM in the assay on MDA-MB-435; 9.45 µM in the assay on NCI-H522 lung; 4.39 µM in the assay with OVCAR-5 ovarian; 6.21 µM with SK-OV-3 ovarian. In the assay on UO-31 renal, the total growth inhibition concentration (TGI) came to 1.31 µM.

In the case of `CN(C)CCNC(=O)NC[C@H]1CC[C@@H]2[C@H](O1)c1cc(C(F)(F)F)ccc1N[C@H]2c1ccccc1`, the GI50 with DU-145 prostate was 0.253 µM; with KM12 colon, 0.296 µM; in the assay with MDA-MB-435, 0.0278 µM; in the assay with NCI-H522 lung, 0.0506 µM; in the assay with OVCAR-5 ovarian, 0.609 µM; in the assay on SK-OV-3 ovarian, 0.0425 µM. Besides, in the assay on UO-31 renal, the GI50 was 6.12 µM. Also, the TGI with DU-145 prostate is 0.792 µM; in the assay on KM12 colon, 14.6 µM; in the assay with MDA-MB-435 it was 0.0718 µM; in the assay on NCI-H522 lung it was 0.303 µM; in the assay with OVCAR-5 ovarian it was 22.6 µM; with SK-OV-3 ovarian it was 10 µM. Further, the TGI with UO-31 renal worked out at 34.6 µM.

Regarding `C#Cc1cccc(NC(=O)c2ccc(NC(=O)CCl)cc2)c1`, the GI50 with DU-145 prostate was over 82.5 µM; in the assay with KM12 colon, 47 µM; in the assay with MDA-MB-435, 43.8 µM; with NCI-H522 lung, 13.5 µM; with OVCAR-5 ovarian it was 21.4 µM; with SK-OV-3 ovarian it was over 82.5 µM. Besides, in the assay with UO-31 renal, the GI50 is 9.48 µM. Also, the TGI with DU-145 prostate is over 82.5 µM; in the assay on KM12 colon, over 82.5 µM; in the assay with MDA-MB-435, over 82.5 µM; with NCI-H522 lung, 35 µM; in the assay on OVCAR-5 ovarian, over 82.5 µM; in the assay with SK-OV-3 ovarian it was over 82.5 µM. This molecule came in with a total growth inhibition concentration (TGI) with UO-31 renal of 20.3 µM.
